# Data as given in patent publication US10421676B2, “Bactericidal/algicidal method” (priority 2007, dated 2019).
# Test: Open-circulating cooling water system, change over time in combined and free chlorine (Example 4 / Comparative Example 1)
# Type: physicochemical
# Conditions: for Combined chlorine: total residual chlorine minus free chlorine (DPD)
# From the text: In this open-circulating cooling water system, cooling water is supplied from a cooling tower 1 to a heat exchanger 3 via a cooling water pipe 2 and a pump P, and is returned to the cooling tower 1 via a cooling water pipe 4. The cooling tower 1 (refrigeration capacity: 400 RT, water storage capacity: 30 m^3) was operated at a concentration factor of 5. The cooling tower 1 has a fan F and contains therein air-conditioning cooling water W. The free chlorine concentration of the air-conditioning cooling water W is measured by means of a sensor S and controlled by means of a free chlorine control section 5 and a combined chlorine control section 6. The free chlorine control section 5 includes a chemical tank 51 and a chemical feed inlet 52. Combined chlorine control section 6 includes a chemical tank 61 and a chemical feed inlet 62. The amount of free chlorine or combined chlorine is controlled on the basis of the free chlorine concentration as measured by means of the sensor S employing an ORP electrode.
# The amount of free chlorine was controlled through addition of a hypochlorite salt. Chlorosulfamic acid was employed as combined chlorine.
# In the water system, chlorosulfamic acid was added so that the chlorine concentration was adjusted to 15 mg-Cl/L with respect to blowing down the cooling water. In the water system, the amount of the hypochlorite salt added was controlled by means of the sensor S so that free chlorine concentration was 0.5 mg-Cl/L. Combined chlorine concentration was measured through the DPD method (determined by use of the following relation: combined chlorine concentration=total residual chlorine concentration−free chlorine concentration).
# Flaked slime was non-forcedly discharged through blowing down at an intensity according to the concentration factor, and a forced removal of the slime (e.g., cleaning) was not carried out. Thus, the water system was continuously operated, and change over time in combined chlorine concentration and free chlorine concentration in the water system was observed.
# The water system was continuously operated under the same conditions as in Example 4 (i.e., chlorosulfamic acid was added so that the chlorine concentration was adjusted to 15 mg-Cl/L with respect to blowing down the cooling water), except that free chlorine concentration was not controlled.
compound,measurement,setting,value
"O=S(=O)(O)NCl [Comparative Example 1, Chlorosulfamic acid]","Combined chlorine concentration, level over the operation period",operation period up to 20 days,maintained at low level
same,Free chlorine,period 1 days,0.0 mg/L
same,Combined chlorine,period 1 days,3 mg/L
same,Free chlorine,period 2 days,0.0 mg/L
same,Combined chlorine,period 2 days,4 mg/L
same,Free chlorine,period 8 days,0.1 mg/L
same,Combined chlorine,period 8 days,3 mg/L
same,Free chlorine,period 14 days,0.0 mg/L
same,Combined chlorine,period 14 days,2 mg/L
same,Free chlorine,period 20 days,0.1 mg/L
same,Combined chlorine,period 20 days,4 mg/L
